The record followed here is US20260285872A1, “COMPOUNDS AND METHODS FOR DEGRADING GSPT1” (priority 2023, published 2026).

Read-outs that look alike come from different tables or passages of the source.

Experiment [1] concerns the target GSPT1 (Homo sapiens, UniProt P15170+Q96SW2). The experiment can be described thus: cell-based. The settings on record: read-out: GSPT1 degradation classification.
The test system of experiment [2] is MV-4-11 cells. The experiment can be described thus: AML cell viability, CellTiter-Glo, MV-4-11 cells. Type of experiment: cell-based. The settings on record: Homo sapiens. How it is done: MV4-11 cells were obtained from ATCC and grown in IMDM supplemented with 10% FBS. The cells were maintained at 37° C. under 5% CO2. […] The luminescence was normalized to that of DMSO-treated samples. IC50 values were obtained using three-parameter non-linear regressions using Prism (GraphPad). […] Cell viability was measured using the CellTiter-Glo reagent after 44 hours of treatment. […] MV4-11 cells were obtained from ATCC and grown in IMDM supplemented with 10% FBS. The cells were maintained at 37° C. under 5% CO2. […] Cell viability was measured using the CellTiter-Glo reagent after 44 hours of treatment.
(In general: In ATP-based viability assays light output follows the ATP content of the culture.)

[3] abbreviates: MV4-11, 44 h, read-out: Cell viability classification.
[4] abbreviates: MV4-11, MV-4-11 cells, CellTiter-Glo, 44 hours of treatment, TABLE 1, read-out: Cell viability classification.
The mark [5] stands for this setting: MV4-11, MV-4-11 cells, 1 μM, 6 hours, Western Blot, % reduction of GSPT1 compared to DMSO, normalized to GAPDH.
Where [6] appears, read: MV4-11, MV-4-11 cells, CellTiter-Glo, 44 hours of treatment, TABLE 5, read-out: Cell viability classification (MV-4-11).

Sequence of GSPT1 (P15170 whole entry): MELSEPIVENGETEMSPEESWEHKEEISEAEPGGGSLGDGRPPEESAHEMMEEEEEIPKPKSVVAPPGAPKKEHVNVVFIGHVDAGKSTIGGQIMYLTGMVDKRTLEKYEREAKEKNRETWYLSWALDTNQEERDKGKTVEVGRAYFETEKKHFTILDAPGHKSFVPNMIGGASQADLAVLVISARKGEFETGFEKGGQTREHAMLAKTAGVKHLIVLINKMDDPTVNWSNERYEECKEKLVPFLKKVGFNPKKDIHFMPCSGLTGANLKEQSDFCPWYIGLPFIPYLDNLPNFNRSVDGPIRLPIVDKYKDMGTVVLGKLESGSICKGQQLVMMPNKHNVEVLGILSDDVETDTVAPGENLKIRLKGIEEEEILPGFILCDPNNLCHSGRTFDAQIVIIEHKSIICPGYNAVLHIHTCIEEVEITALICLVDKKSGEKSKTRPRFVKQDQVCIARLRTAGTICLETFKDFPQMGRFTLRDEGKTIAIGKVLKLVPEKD
Sequence of GSPT1 (Q96SW2 whole entry): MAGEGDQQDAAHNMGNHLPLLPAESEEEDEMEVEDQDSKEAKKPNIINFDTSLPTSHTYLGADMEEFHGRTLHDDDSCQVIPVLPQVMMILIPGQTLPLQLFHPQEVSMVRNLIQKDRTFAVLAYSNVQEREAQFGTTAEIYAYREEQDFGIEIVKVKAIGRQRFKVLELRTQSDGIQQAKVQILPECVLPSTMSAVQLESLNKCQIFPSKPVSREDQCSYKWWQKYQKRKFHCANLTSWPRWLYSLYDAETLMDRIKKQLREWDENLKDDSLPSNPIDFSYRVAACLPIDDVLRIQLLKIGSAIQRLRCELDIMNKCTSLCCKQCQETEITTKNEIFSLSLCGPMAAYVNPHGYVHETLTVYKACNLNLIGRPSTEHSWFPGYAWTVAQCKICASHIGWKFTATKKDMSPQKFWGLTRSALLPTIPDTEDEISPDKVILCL
Sequence of GSPT1 (Q16531 whole entry partner): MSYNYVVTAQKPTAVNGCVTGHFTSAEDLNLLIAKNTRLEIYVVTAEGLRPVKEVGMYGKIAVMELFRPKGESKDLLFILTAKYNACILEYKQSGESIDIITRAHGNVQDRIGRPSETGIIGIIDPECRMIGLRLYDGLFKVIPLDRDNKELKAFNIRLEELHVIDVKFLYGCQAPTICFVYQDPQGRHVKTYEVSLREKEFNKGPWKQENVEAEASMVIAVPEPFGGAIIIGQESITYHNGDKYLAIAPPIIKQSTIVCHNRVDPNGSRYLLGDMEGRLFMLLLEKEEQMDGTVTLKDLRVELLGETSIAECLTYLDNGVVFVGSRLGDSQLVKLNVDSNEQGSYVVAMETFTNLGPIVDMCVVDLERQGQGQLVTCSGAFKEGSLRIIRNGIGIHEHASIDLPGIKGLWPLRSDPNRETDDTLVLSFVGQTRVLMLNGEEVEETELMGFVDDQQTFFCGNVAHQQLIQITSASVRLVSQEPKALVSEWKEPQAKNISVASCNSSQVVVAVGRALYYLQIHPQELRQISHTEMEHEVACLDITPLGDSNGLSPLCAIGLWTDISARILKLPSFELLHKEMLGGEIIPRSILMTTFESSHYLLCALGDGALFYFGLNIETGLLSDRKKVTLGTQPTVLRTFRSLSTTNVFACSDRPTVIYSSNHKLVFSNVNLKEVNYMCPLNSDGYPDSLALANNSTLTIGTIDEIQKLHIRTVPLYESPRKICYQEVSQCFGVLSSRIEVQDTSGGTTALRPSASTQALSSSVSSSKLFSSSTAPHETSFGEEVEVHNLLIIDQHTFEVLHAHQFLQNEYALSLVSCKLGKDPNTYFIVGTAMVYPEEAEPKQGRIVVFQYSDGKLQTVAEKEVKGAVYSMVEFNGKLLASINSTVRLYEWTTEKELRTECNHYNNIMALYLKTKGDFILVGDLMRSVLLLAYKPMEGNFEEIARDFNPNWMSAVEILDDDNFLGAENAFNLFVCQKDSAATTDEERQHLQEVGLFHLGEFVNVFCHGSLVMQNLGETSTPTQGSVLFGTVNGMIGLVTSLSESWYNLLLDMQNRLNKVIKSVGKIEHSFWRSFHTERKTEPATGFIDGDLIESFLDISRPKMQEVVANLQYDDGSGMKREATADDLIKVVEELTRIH

With `O=C1CCC(N2Cc3cc(C(=O)N[C@H]4CCc5ccccc54)ccc3C2=O)C(=O)N1` (stereo partly drawn) [Example 1, N—((S)-2,3-dihydro-1H-inden-1-yl)-2-(2,6-dioxopiperidin-3-yl)-1-oxoisoindoline-5-carboxamide], in experiment [1] (MV4-11, 6 h), the inhibition at 1 µM is less than 50%. Further, the IC50 in experiment [2] (setting [3]) is less than 100 nM. Take `O=C1CCC(N2Cc3cc(C(=O)Nc4csc5ccccc45)ccc3C2=O)C(=O)N1` (centres unmarked) [Example 8, N-(benzo[b]thiophen-3-yl)-2-(2,6-dioxopiperidin-3-yl)-1-oxoisoindoline-5-carboxamide]: in experiment [1] (MV4-11, 6 h), the inhibition at 1 µM is greater than 75%. Also, the IC50 in experiment [2] (setting [4]) is less than 100 nM.

For the compound `O=C1CCC(N2Cc3cc(C(=O)N4CCc5ccccc54)ccc3C2=O)C(=O)N1` (centres unmarked) [Example 11, 3-(5-(indoline-1-carbonyl)-1-oxoisoindolin-2-yl)piperidine-2,6-dione], the inhibition at 1 µM in experiment [1] (MV4-11, 6 h) was greater than 75%. In addition, the IC50 in experiment [2] (setting [3]) is less than 100 nM. Take `O=C1CCC(N2Cc3cc(C(=O)N4Cc5cccc(C(F)(F)F)c5C4)ccc3C2=O)C(=O)N1` (centres unmarked) [Example 21, 3-(1-oxo-5-(4-(trifluoromethyl)isoindoline-2-carbonyl)isoindolin-2-yl)piperidine-2,6-dione]: in experiment [1] (setting [5]), the inhibition at 1 µM is greater than 75%. In addition, the IC50 in experiment [2] (setting [4]) was less than 100 nM. With `O=C1CCC(N2Cc3cc(C(=O)N4Cc5ccc(C(F)(F)F)cc5C4)ccc3C2=O)C(=O)N1` (centres unmarked) [Example 22, 3-(1-oxo-5-(5-(trifluoromethyl)isoindoline-2-carbonyl)isoindolin-2-yl)piperidine-2,6-dione], the inhibition at 1 µM in experiment [1] (setting [5]) is greater than 75%. Besides, the IC50 in experiment [2] (setting [4]) is less than 100 nM. Regarding `O=C1CCC(N2Cc3cc(C(=O)N4CCc5ncccc54)ccc3C2=O)C(=O)N1` (centres unmarked) [Example 28, 3-(5-(2,3-dihydro-1H-pyrrolo[3,2-b]pyridine-1-carbonyl)-1-oxoisoindolin-2-yl)piperidine-2,6-dione], the inhibition at 1 µM in experiment [1] (setting [5]) was in the range of 50 to 75%. Further, the IC50 in experiment [2] (setting [4]) is less than 100 nM. As for `O=C1CCC(N2Cc3cc(C(=O)N4Cc5ccncc5C4)ccc3C2=O)C(=O)N1` (centres unmarked) [Example 31, 3-(5-(2,3-dihydro-1H-pyrrolo[3,4-c]pyridine-2-carbonyl)-1-oxoisoindolin-2-yl)piperidine-2,6-dione], in experiment [1] (setting [5]), the inhibition at 1 µM is 50 to 75%. Besides, the IC50 in experiment [2] (setting [4]) lay within 100 to 1000 nM. Take `O=C1CCC(N2Cc3cc(C(=O)N4CCc5ccc(F)cc54)ccc3C2=O)C(=O)N1` (centres unmarked) [Example 32, 3-(5-(6-fluoroindoline-1-carbonyl)-1-oxoisoindolin-2-yl)piperidine-2,6-dione]: the inhibition at 1 µM in experiment [1] (MV4-11, 6 h) was greater than 75%. Further, the IC50 in experiment [2] (setting [4]) is less than 100 nM. As to `O=C1CCC(N2Cc3cc(C(=O)N4CCc5cc(Cl)cc(F)c54)ccc3C2=O)C(=O)N1` (centres unmarked) [Example 56, 3-(5-(5-chloro-7-fluoroindoline-1-carbonyl)-1-oxoisoindolin-2-yl)piperidine-2,6-dione], the inhibition at 1 µM in experiment [1] (setting [5]) is 50 to 75%. For the same compound, the IC50 in experiment [2] (setting [4]) is 100 to 1000 nM. On to `O=C1CCC(N2Cc3cc(C(=O)N4CCc5cc(F)cc(F)c54)ccc3C2=O)C(=O)N1` (centres unmarked) [Example 57, 3-(5-(5,7-difluoroindoline-1-carbonyl)-1-oxoisoindolin-2-yl)piperidine-2,6-dione], for which the inhibition at 1 µM in experiment [1] (MV4-11, 6 h) was in the range of 50 to 75%. In addition, the IC50 in experiment [2] (setting [4]) fell in the range of 100 to 1000 nM. For `O=C1CCC(N2Cc3cc(C(=O)Nc4ccsc4)ccc3C2=O)C(=O)N1` (centres unmarked) [Example 58, 2-(2,6-dioxopiperidin-3-yl)-1-oxo-N-(thiophen-3-yl)isoindoline-5-carboxamide], the inhibition at 1 µM in experiment [1] (MV4-11, 6 h) was greater than 75%. Also, the IC50 in experiment [2] (setting [4]) is less than 100 nM. For the compound `O=C1CCC(N2Cc3cc(C(=O)Nc4csc5cccnc45)ccc3C2=O)C(=O)N1` (centres unmarked) [Example 59, 2-(2,6-dioxopiperidin-3-yl)-1-oxo-N-(thieno[3,2-b]pyridin-3-yl)isoindoline-5-carboxamide], the inhibition at 1 µM in experiment [1] (setting [5]) was greater than 75%. Besides, the IC50 in experiment [2] (setting [4]) is less than 100 nM. On to `O=C1CCC(N2Cc3cc(C(=O)Nc4csc5ccncc45)ccc3C2=O)C(=O)N1` (centres unmarked) [Example 60], for which, in experiment [1] (setting [5]), the inhibition at 1 µM was in the range of 50 to 75%. Besides, in experiment [2] (setting [4]), the IC50 lay in the range of 100 to 1000 nM.

In the case of `O=C1CCC(N2Cc3cc(C(=O)Nc4csc5cnccc45)ccc3C2=O)C(=O)N1` (centres unmarked) [Example 61, 2-(2,6-dioxopiperidin-3-yl)-1-oxo-N-(thieno[2,3-c]pyridin-3-yl)isoindoline-5-carboxamide], the inhibition at 1 µM in experiment [1] (setting [5]) was greater than 75%. The IC50 in experiment [2] (setting [4]) was less than 100 nM.

As for `O=C1CCC(N2Cc3cc(C(=O)Nc4csc5ncccc45)ccc3C2=O)C(=O)N1` (centres unmarked) [Example 62, 2-(2,6-dioxopiperidin-3-yl)-1-oxo-N-(thieno[2,3-b]pyridin-3-yl)isoindoline-5-carboxamide], in experiment [1] (setting [5]), the inhibition at 1 µM is less than 50%. For the same compound, the IC50 in experiment [2] (setting [4]) is greater than 1000 nM. `O=C1CCC(N2Cc3cc(C(=O)N4CCc5c(F)cccc54)ccc3C2=O)C(=O)N1` (centres unmarked) [Example 74, 3-(5-(4-fluoroindoline-1-carbonyl)-1-oxoisoindolin-2-yl)piperidine-2,6-dione]: the inhibition at 1 µM in experiment [1] (MV4-11, 6 h) was greater than 75%. Also, the IC50 in experiment [2] (setting [4]) was less than 100 nM.

Consider `O=C1CCC(N2Cc3cc(C(=O)N4CCc5cc(F)ccc54)ccc3C2=O)C(=O)N1` (centres unmarked) [Example 75, 3-(5-(5-fluoroindoline-1-carbonyl)-1-oxoisoindolin-2-yl)piperidine-2,6-dione], for which the inhibition at 1 µM in experiment [1] (MV4-11, 6 h) is greater than 75%. For the same compound, the IC50 in experiment [2] (setting [4]) is less than 100 nM. For the compound `O=C1CCC(N2Cc3cc(C(=O)N4CCc5cccc(F)c54)ccc3C2=O)C(=O)N1` (centres unmarked) [Example 76, 3-(5-(7-fluoroindoline-1-carbonyl)-1-oxoisoindolin-2-yl)piperidine-2,6-dione], in experiment [1] (MV4-11, 6 h), the inhibition at 1 µM was less than 50%. Moreover, the IC50 in experiment [2] (setting [4]) lay in the range of 100 to 1000 nM.

With `O=C1CCC(N2Cc3cc(C(=O)N4CCc5c4cccc5C(F)(F)F)ccc3C2=O)C(=O)N1` (centres unmarked) [Example 77, 3-(1-oxo-5-(4-(trifluoromethyl)indoline-1-carbonyl)isoindolin-2-yl)piperidine-2,6-dione], the inhibition at 1 µM in experiment [1] (MV4-11, 6 h) is greater than 75%. Besides, in experiment [2] (setting [4]), the IC50 is less than 100 nM.

On to `O=C1CCC(N2Cc3cc(C(=O)N4CCc5cc(C(F)(F)F)ccc54)ccc3C2=O)C(=O)N1` (centres unmarked) [Example 78, 3-(1-oxo-5-(5-(trifluoromethyl)indoline-1-carbonyl)isoindolin-2-yl)piperidine-2,6-dione], for which, in experiment [1] (MV4-11, 6 h), the inhibition at 1 µM is 50 to 75%. Besides, the IC50 in experiment [2] (setting [4]) was 100 to 1000 nM. As to `O=C1CCC(N2Cc3cc(C(=O)N4CCc5ccc(C(F)(F)F)cc54)ccc3C2=O)C(=O)N1` (centres unmarked) [Example 79, 3-(1-oxo-5-(6-(trifluoromethyl)indoline-1-carbonyl)isoindolin-2-yl)piperidine-2,6-dione], the inhibition at 1 µM in experiment [1] (MV4-11, 6 h) lay within 50 to 75%. In addition, the IC50 in experiment [2] (setting [4]) was 100 to 1000 nM.

In the case of `O=C1CCC(N2Cc3cc(C(=O)N4CCc5cc(OC(F)(F)F)ccc54)ccc3C2=O)C(=O)N1` (centres unmarked) [Example 80, 3-(1-oxo-5-(5-(trifluoromethoxy)indoline-1-carbonyl)isoindolin-2-yl)piperidine-2,6-dione], the inhibition at 1 µM in experiment [1] (MV4-11, 6 h) was in the range of 50 to 75%. In experiment [2] (setting [4]), the IC50 was 100 to 1000 nM. Consider `O=C1CCC(N2Cc3cc(C(=O)N4CCc5ccc(OC(F)(F)F)cc54)ccc3C2=O)C(=O)N1` (centres unmarked) [Example 81, 3-(1-oxo-5-(6-(trifluoromethoxy)indoline-1-carbonyl)isoindolin-2-yl)piperidine-2,6-dione], for which the inhibition at 1 µM in experiment [1] (MV4-11, 6 h) was less than 50%. Moreover, in experiment [2] (setting [4]), the IC50 is greater than 1000 nM. For the compound `COc1cccc2c1CCN2C(=O)c1ccc2c(c1)CN(C1CCC(=O)NC1=O)C2=O` (centres unmarked) [Example 82, 3-(5-(4-methoxyindoline-1-carbonyl)-1-oxoisoindolin-2-yl)piperidine-2,6-dione], in experiment [1] (setting [5]), the inhibition at 1 µM was 50 to 75%. The IC50 in experiment [2] (setting [4]) is less than 100 nM. As to `COc1ccc2c(c1)CCN2C(=O)c1ccc2c(c1)CN(C1CCC(=O)NC1=O)C2=O` (centres unmarked) [Example 83, 3-(5-(5-methoxyindoline-1-carbonyl)-1-oxoisoindolin-2-yl)piperidine-2,6-dione], the inhibition at 1 µM in experiment [1] (MV4-11, 6 h) is less than 50%. Also, in experiment [2] (setting [4]), the IC50 was less than 100 nM. Consider `COc1ccc2c(c1)N(C(=O)c1ccc3c(c1)CN(C1CCC(=O)NC1=O)C3=O)CC2` (centres unmarked) [Example 84, 3-(5-(6-methoxyindoline-1-carbonyl)-1-oxoisoindolin-2-yl)piperidine-2,6-dione], for which the inhibition at 1 µM in experiment [1] (MV4-11, 6 h) was less than 50%. The IC50 in experiment [2] (setting [4]) fell in the range of 100 to 1000 nM. Consider `COc1cccc2c1N(C(=O)c1ccc3c(c1)CN(C1CCC(=O)NC1=O)C3=O)CC2` (centres unmarked) [Example 85, 3-(5-(7-methoxyindoline-1-carbonyl)-1-oxoisoindolin-2-yl)piperidine-2,6-dione], for which, in experiment [1] (setting [5]), the inhibition at 1 µM is less than 50%. In experiment [2] (setting [4]), the IC50 lay in the range of 100 to 1000 nM. Turning to `O=C1CCN(c2ccc3ccc(C(=O)N4CCCc5ccccc54)cc3c2)C(=O)N1` [Example 128, 1-(7-(1,2,3,4-tetrahydroquinoline-1-carbonyl)naphthalen-2-yl)dihydropyrimidine-2,4(1H,3H)-dione], the IC50 in experiment [2] (setting [6]) was greater than 1000 nM. As to `O=C1CCN(c2ccc3ccc(C(=O)N4CCc5ccccc5C4)cc3c2)C(=O)N1` [Example 129, 1-(7-(1,2,3,4-tetrahydroisoquinoline-2-carbonyl)naphthalen-2-yl)dihydropyrimidine-2,4(1H,3H)-dione], the IC50 in experiment [2] (setting [6]) was greater than 1000 nM.
